Laboratory results reported in PubChem BioAssay AID1918940 (Molecular Pharmacology Branch, DTP, NCI, 2023).
Values joined by “and” are separate entries in the source; they are usually repeats but may differ in a detail not shown here. Identical values can stand only once. One block for each molecule: values may come before it.

Test system: NCI-H211 complex spheroid viability
Assay: Anticancer human tumor NCI-H211 cell line growth inhibition [LSD1];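 note: luminescent viability read after seven days of drug exposure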;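 for viability, T/C: 100% = DMSO vehicle control viability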
Details: for viability, T/C: stronger effect = lower value
Summary of the method: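 Complex spheroids of tumor cells with HUVEC and human MSCs, exposed to iadademstat combined with other agents. Each agent tested in half-log steps from near clinical Cmax (else 10 microM top), DMSO ≤0.25%.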

[1] = curve of first compound, second compound 0.1 µM
[2] = curve of first compound, second compound 0.316 µM
[3] = curve of first compound, second compound 1 µM
[4] = curve of first compound, second compound 3.16 µM
[5] = curve of first compound, second compound 10 µM
[6] = second compound 0.1 µM, first compound 0.00949 µM
[7] = second compound 0.1 µM, first compound 0.03 µM
[8] = second compound 0.1 µM, first compound 0.0949 µM
[9] = second compound 0.1 µM, first compound 0.3 µM
[10] = second compound 0.316 µM, first compound 0.00949 µM
[11] = second compound 0.316 µM, first compound 0.03 µM
[12] = second compound 0.316 µM, first compound 0.0949 µM
[13] = second compound 0.316 µM, first compound 0.3 µM
[14] = second compound 1 µM, first compound 0.00949 µM
[15] = second compound 1 µM, first compound 0.03 µM
[16] = second compound 1 µM, first compound 0.0949 µM
[17] = second compound 1 µM, first compound 0.3 µM
[18] = second compound 3.16 µM, first compound 0.00949 µM
[19] = second compound 3.16 µM, first compound 0.03 µM
[20] = second compound 3.16 µM, first compound 0.0949 µM
[21] = second compound 3.16 µM, first compound 0.3 µM
[22] = second compound 10 µM, first compound 0.00949 µM
[23] = second compound 10 µM, first compound 0.03 µM
[24] = second compound 10 µM, first compound 0.0949 µM
[25] = second compound 10 µM, first compound 0.3 µM

SMILES: COc1ccc([C@@H](O)c2cc(-c3ncnc4cc(N5CCOCC5)ccc34)c(F)cc2Cl)nn1
viability, T/C (compound 0.0316 µM): 108% and 89.2%
viability, T/C (compound 0.1 µM): 96.5% and 86.3%
viability, T/C (compound 0.316 µM): 93.7% and 94.2%
viability, T/C (compound 1 µM): 103% and 87.4%
viability, T/C (compound 3.16 µM): 70.8% and 76.6%
viability, T/C (compound 10 µM): 10.4% and 8.12%
IC50 (curve of compound): 4700 nM and 4950 nM

SMILES: NS(=O)(=O)OCC1CC(n2ccc3c(NC4CCc5ccccc54)ncnc32)CC1O (stereo unspecified) + NC1CC1c1ccc(-c2cccc(O)c2)cc1
IC50 [1]: < 9.49 nM
IC50 [2]: < 9.49 nM
IC50 [3]: < 9.49 nM
IC50 [4]: < 9.49 nM
IC50 [5]: < 9.49 nM
viability, T/C [6]: 21.2%
viability, T/C [7]: 9.36%
viability, T/C [8]: 4.3%
viability, T/C [9]: 1.71%
viability, T/C (second compound 0.1 µM, first compound 0.949 µM): 1.1%
viability, T/C (second compound 0.1 µM, first compound 3 µM): 0.94%
viability, T/C [10]: 20.3%
viability, T/C [11]: 13.6%
viability, T/C [12]: 2.93%
viability, T/C [13]: 1.2%
viability, T/C (second compound 0.316 µM, first compound 0.949 µM): 1.09%
viability, T/C (second compound 0.316 µM, first compound 3 µM): 0.81%
viability, T/C [14]: 20.4%
viability, T/C [15]: 10.4%
viability, T/C [16]: 3.57%
viability, T/C [17]: 1.64%
viability, T/C (second compound 1 µM, first compound 0.949 µM): 1.11%
viability, T/C (second compound 1 µM, first compound 3 µM): 0.79%
viability, T/C [18]: 26.8%
viability, T/C [19]: 13.2%
viability, T/C [20]: 5.17%
viability, T/C [21]: 2.04%
viability, T/C (second compound 3.16 µM, first compound 0.949 µM): 0.97%
viability, T/C (second compound 3.16 µM, first compound 3 µM): 0.81%
viability, T/C [22]: 27.4%
viability, T/C [23]: 12%
viability, T/C [24]: 5.24%
viability, T/C [25]: 1.75%
viability, T/C (second compound 10 µM, first compound 0.949 µM): 0.61%
viability, T/C (second compound 10 µM, first compound 3 µM): 0.57%

SMILES: CCc1c2c(nc3ccc(O)cc13)-c1cc3c(c(=O)n1C2)COC(=O)[C@]3(O)CC + NC1CC1c1ccc(-c2cccc(O)c2)cc1
IC50 [1]: < 0.949 nM
IC50 [2]: < 0.949 nM
IC50 [3]: < 0.949 nM
IC50 [4]: < 0.949 nM
IC50 [5]: < 0.949 nM
viability, T/C (second compound 0.1 µM, first compound 0.000949 µM): 3.24%
viability, T/C (second compound 0.1 µM, first compound 0.003 µM): 1.7%
viability, T/C [6]: 2.13%
viability, T/C [7]: 0.66%
viability, T/C [8]: 0.05%
viability, T/C [9]: 0.14%
viability, T/C (second compound 0.316 µM, first compound 0.000949 µM): 3.2%
viability, T/C (second compound 0.316 µM, first compound 0.003 µM): 1.12%
viability, T/C [10]: 1.18%
viability, T/C [11]: 1.44%
viability, T/C [12]: 0.05%
viability, T/C [13]: 0.15%
viability, T/C (second compound 1 µM, first compound 0.000949 µM): 3.18%
viability, T/C (second compound 1 µM, first compound 0.003 µM): 1.68%
viability, T/C [14]: 1.11%
viability, T/C [15]: 0.97%
viability, T/C [16]: 0.04%
viability, T/C [17]: 0.16%
viability, T/C (second compound 3.16 µM, first compound 0.000949 µM): 2.71%
viability, T/C (second compound 3.16 µM, first compound 0.003 µM): 1.57%
viability, T/C [18]: 1.28%
viability, T/C [19]: 0.83%
viability, T/C [20]: 0.05%
viability, T/C [21]: 0.2%
viability, T/C (second compound 10 µM, first compound 0.000949 µM): 2.86%
viability, T/C (second compound 10 µM, first compound 0.003 µM): 1.99%
viability, T/C [22]: 1.75%
viability, T/C [23]: 1.25%
viability, T/C [24]: 0.17%
viability, T/C [25]: 0.2%

Continued, in another order:

IC50 (curve of compound): 31.3 nM and 22.1 nM
SMILES: Nc1ccccc1NC(=O)c1ccc(CNC(=O)OCc2cccnc2)cc1
viability, T/C (compound 0.00949 µM): 106% and 110%
viability, T/C (compound 0.03 µM): 51.8% and 28.6%
viability, T/C (compound 0.0949 µM): 5.07% and 4.05%
viability, T/C (compound 0.3 µM): 1.34% and 3.99%
viability, T/C (compound 0.949 µM): 0.93% and 2.1%
viability, T/C (compound 3 µM): 0.2% and 0.22%

IC50 (curve of compound): 46.4 nM and 36.9 nM
SMILES: O=C(c1cc(Cc2n[nH]c(=O)c3ccccc23)ccc1F)N1CCN(C(=O)C2CC2)CC1
viability, T/C (compound 0.0316 µM): 59.8% and 54.5%
viability, T/C (compound 0.1 µM): 30.3% and 22.6%
viability, T/C (compound 0.316 µM): 6.95% and 9.45%
viability, T/C (compound 1 µM): 3.01% and 7.35%
viability, T/C (compound 3.16 µM): 2.95% and 7.77%
viability, T/C (compound 10 µM): 2.77% and 6.06%
